Holding throughout (test): growth of human tumour cells (NCI), 48 h
Test [1] has as its system CAKI-1 renal.
Test [2] deals with CCRF-CEM leukemia.
For test [3], the system named is HCC-2998 colon.
The subject of test [4] is HOP-62 NSCLC.
The subject of test [5] is NCI-H226 lung.
Test [6] concerns NCI-H23 lung.
Test [7] relates to OVCAR-3 ovarian.
In test [8] the test system is SN12C renal.
Test [9] concerns SR leukemia.
For test [10], the system named is U251 CNS.

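Test compounds were applied to cells in 96-well plates for 48 hours at 5 doses. Here, GI50 denotes the concentration required for 50% inhibition of growth. At the TGI there is no net growth.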

In PubChem BioAssay (NCI) one finds TGI and GI50 data, which are given here for 10 compounds.

On to `C[C@]12C[C@H](c3ccccc3)Nc3ccccc3N1C(c1ccccc1)=NO2`, for which the TGI in test [1], in [2], in [3], in test [4], in test [5] and in [6] was more than 100 µM throughout. Besides, the TGI in test [7] is more than 100 µM; in test [8], more than 100 µM; in [9], 26.6 µM; in [10], more than 100 µM.

Turning to `CC(C)CS(=O)(=O)/C(=C(\c1ccc(Br)cc1)S(=O)(=O)CC(C)C)c1ccc(Br)cc1`, the TGI in [1], in test [2], in test [3], in test [4], in test [5] and in [6] was more than 100 µM throughout. Moreover, the TGI in [7], in [8], in test [9] and in test [10] was more than 100 µM in each case.

As to `CC(=O)C(=[N+]=[N-])C(=O)NCC#N`, the TGI in [1], in test [2], in test [3], in [4], in test [5] and in test [6] was more than 10 µM throughout. Besides, the TGI in test [7], in test [8], in test [9] and in test [10] was more than 10 µM each time.

With `CCN1CCN(C(=O)[C@]23CC[C@@H](C)[C@H](C)[C@@H]2C2=CC[C@@H]4[C@@]5(C)C/C(=C/c6ccncc6)C(=O)C(C)(C)[C@@H]5CC[C@@]4(C)[C@]2(C)CC3)CC1`, the GI50 in test [1] was 1.32 µM; in [2], 2.42 µM; in test [3] it was 1.5 µM; in test [4] it was 2.37 µM; in [5] it was 1.75 µM; in test [6], 1.75 µM. In addition, the GI50 was 1.56 µM in [7], 1.63 µM in test [8], 1.89 µM in test [9] and 1.72 µM in test [10]. The TGI came out at 2.8 µM in test [1]; 6.28 µM in test [2]; 3.03 µM in test [3]; 5.75 µM in test [4]; 3.64 µM in test [5]; 3.41 µM in test [6]. The TGI in test [7] is 2.94 µM; in test [8], 2.99 µM; in test [9] it was 5.29 µM; in test [10], 3.38 µM.

`COc1cc(OC)c(/C=C/S(=O)(=O)Cc2cnc(OC)c(N)c2)c(OC)c1`: the GI50 in test [1] is less than 0.0177 µM; in test [2], less than 0.0204 µM; in test [3], less than 0.0333 µM; in test [4], less than 0.0185 µM; in test [5], more than 40.1 µM; in test [6], less than 0.0262 µM. In addition, the GI50 was 0.0264 µM in test [7], less than 0.0232 µM in test [8], less than 0.0143 µM in test [9] and less than 0.0224 µM in [10]. Moreover, the TGI in [1], in test [2], in [3], in test [4], in test [5] and in [6] was more than 100 µM throughout. The TGI in test [7], in [8], in [9] and in [10] was more than 100 µM throughout.

Take `Cn1c([N+](=O)[O-])cnc1/C=C1\Oc2ccccc2C1=O`: the GI50 in [1] was 0.24 µM; in test [2], 0.168 µM; in [3], 1.9 µM; in test [4] it was 1.07 µM; in [5], 1.68 µM; in test [6], 0.37 µM. Besides, the GI50 in test [7] is 0.527 µM; in [8] it was 0.593 µM; in [9], 0.0392 µM; in test [10], 1.19 µM. Moreover, the TGI in test [1] came out at 0.601 µM; in [2] it was 1.38 µM; in test [3], 5.06 µM; in test [4], 4.42 µM; in test [5], 4.91 µM; in test [6], 2.61 µM. Besides, the TGI in test [7] was 5.21 µM; in test [8] it was 2.87 µM; in [9] it was 0.534 µM; in test [10], 4.05 µM.

For the compound `COc1ccc(/C=C2\CCC(CNc3cc(C)on3)C2=O)cc1` (stereo not given), the TGI in test [1], in [2], in test [3], in test [4], in [5] and in test [6] was more than 100 µM in each case. Besides, the TGI in test [7], in test [8], in [9] and in [10] was more than 100 µM each time.

In the case of `O=C(/C=C/c1ccc(F)cc1)c1ccc(Cl)cc1Cl`, the GI50 in [1] was 33 µM; in test [2], 22.1 µM; in test [3] it was 52.7 µM; in test [4], more than 100 µM; in [5] it was more than 100 µM; in test [6], 37.2 µM. Besides, the GI50 in [7] is 25.8 µM; in [8], 61.8 µM; in test [9], 26.4 µM; in [10], 44.6 µM. Also, the TGI in test [1] was 89.6 µM; in [2], 52.8 µM; in test [3], more than 100 µM; in [4] it was more than 100 µM; in test [5] it was more than 100 µM; in test [6], more than 100 µM. The TGI in [7] is 73 µM; in test [8], more than 100 µM; in [9] it was 86.5 µM; in [10] it was more than 100 µM.

For `COc1cc(Nc2nccc(Nc3ccc4c(C)[nH]nc4c3)n2)cc(OC)c1OC`, the GI50 in test [1] is 1.05 µM; in test [2], 6 µM; in test [3], 3.17 µM; in [4], 1.08 µM; in [5] it was 1.01 µM; in test [6], 2.51 µM. Moreover, the GI50 in test [7] is 2.5 µM; in test [8] it was 2.12 µM; in test [9] it was 1.42 µM; in [10], 3.92 µM. Also, the TGI is 4.62 µM in [1]; more than 25 µM in test [2]; 8.46 µM in test [3]; 8.34 µM in test [4]; 7.1 µM in test [5]; 7.82 µM in test [6]. Further, the TGI is 7.54 µM in [7], 20.8 µM in test [8], more than 15.3 µM in [9] and 17.8 µM in test [10].

Regarding `COc1ccc(-c2onc(-c3ccc([N+](=O)[O-])cc3)c2C2=NCCN2)cc1`, the TGI in [1], in [2], in test [3], in [4], in test [5] and in test [6] was more than 100 µM each time. Also, the TGI in test [7], in test [8], in test [9] and in test [10] was more than 100 µM throughout.
